The values below are quoted from earlier work in patent publication US11911505B2, “Liquid formulations of hypoglycaemic sulfonamides” (AMMTEK, priority 2012, dated 2024).

Converted amounts (≈) assume the structure as drawn.

For this data set the following is noted: 27° C.
Consider `CC(=O)c1ccc(S(=O)(=O)NC(=O)NC2CCCCC2)cc1` [acetohexamide], for which the solubility in water was 48 µg/mL (≈ 148 µM).

In the case of `CCC1=C(C)CN(C(=O)NCCc2ccc(S(=O)(=O)NC(=O)N[C@H]3CC[C@H](C)CC3)cc2)C1=O` [glimepiride], the solubility in water was 38 µg/mL (≈ 77.5 µM).

Consider `COc1ccc2c(c1)C(=O)N(CCc1ccc(S(=O)(=O)NC(=O)NC3CCCCC3)cc1)C(=O)C2(C)C` [gliquidone], for which the solubility in water was 2 µg/mL (≈ 3.79 µM).
